# Reference: patent US20240189289A1, “INHIBITORS OF EPHB3 SIGNALING” (The Brigham and Women`s Hospital, Inc., priority 2021, published 2024)
# Entries after “also recorded” stand apart in the source; their conditions may differ.
# Tests used:
# [1] = Aqueous solubility; assay type: physicochemical; conditions: aqueous solution, aqueous buffer; oxalate salt, pH 7.4; read-out: aqueous solubility of the oxalate salt
# [2] = test system: NOD EAE; assay: Chronic progressive EAE in NOD mice (MOG35-55); assay type: in vivo, mouse
# Experimental: EAE. […] EAE was assessed as follows: 0, no signs of disease; 1, loss of tone in the tail; 2, hind limb paresis; 3, hind limb paralysis; 4, tetraplegia; 5, moribund.
# To further validate the potential of EphB3 kinase inhibition for the therapeutic modulation of CNS inflammation and neurodegeneration, a study was performed using non-obese diabetic (NOD) mouse model of chronic progressive EAE induced by immunization with MOG35-55, which recapitulated aspects of secondary progressive MS, including the progressive and irreversible accumulation of neurologic disability.
# [3] = test system: N2A neuronal cells; assay: Neurotoxicity assay of astrocyte-conditioned medium (LDH release); assay type: cell-based, mouse; conditions: ACM from astrocytes pre-treated with compound, LDH release after 24 h
# Experimental: Generation of astrocyte-conditioned medium (ACM). […] After 24 h, cells were extensively washed with 1×PBS, and incubated with fresh astrocyte complete medium for 48 h. Supernatants were spun down and kept at −80° C. until tested in migration and neurotoxicity assays.
# Neurotoxicity Assay. N2A neuronal cells (#CCL-131, ATCC) were plated and pre-activated with 100 ng/mL mouse IFNγ (#485-MI-100; R&D Systems) for 24 h.
# Thereafter, after extensive washing with 1×PBS, medium was replaced with ACM and after 24 h the supernatant was harvested for cytotoxicity evaluation by measuring LDH release with CytoTox 96 nonradioactive cytotoxicity assay kit (#G1780, Promega) following the manufacturer's protocol.
# [4] = test system: EAE in C57BL/6 mice; assay: EAE in C57BL/6 mice (MOG35-55); assay type: in vivo, mouse
# Experimental: EAE. EAE was induced in 8-10 week old female C57BL/6 or NOD by subcutaneous immunization with 150 μg MOG35-55 (#110582, Genemed Synthesis) emulsified in 200 μL of complete Freund's adjuvant per mouse, followed by administration of 200 ng pertussis toxin (#180, List biological Laboratories) on days 0 and 2 as described. […] EAE was assessed as follows: 0, no signs of disease; 1, loss of tone in the tail; 2, hind limb paresis; 3, hind limb paralysis; 4, tetraplegia; 5, moribund.
# Mononuclear cells. Mononuclear cells, including astrocytes, monocytes, and microglia, were isolated from the CNS as described. Briefly, mice were perfused with 1×PBS and the isolated brain and spinal cords were homogenized with a razor blade, digested in 0.66 mg/mL papain (#P4762, Sigma-Aldrich) for 15 minutes at 37° C. and subsequently 15 minutes with 0.66 mg/mL Collagenase D (#11088858001, Roche) and 8 U/mL DNase I (#90083, Thermo Fisher Scientific). Samples where then homogenized and filtered through a 70 µm cell strainer and resuspended in 30% Percoll TM solution (#17-5445-01, GE Healthcare) overlayed by 1×PBS for myelin removal. Isolated mononuclear CNS cells were washed with 1×PBS and stained with fluorochrome-conjugated antibody to FITC anti-CD11b (Cat #11-0112-85, eBioscience), APC anti-CD45 (Cat #17-0451-83, eBioscience), BV421 anti-Ly-6C (Cat #128031, Biolegend), PE anti-mouse CD45R/B220 (Cat #553089, BD Biosciences), PE anti-CD140a (Cat #12-1401-81, eBioscience), PE anti-CD105 (Cat #12-1051-82, eBioscience), PE anti-04 (Cat #FAB1326P, R&D), PE anti-Ly-6G (Cat #127608, BioLegend) and PE anti-mouse TER-119 (Cat #116207, BioLegend). Microglia were sorted as CD11b^+CD45^lo Ly6C1^lo, inflammatory monocytes were considered as CD45^hiCD11b^+Ly6C1^hi. Astrocytes were sorted as CD11b^loCD45^lo Ly6C^loCD105^lo CD140a^lo CD11b^loTer119^loCD19^lo after the exclusion of erythrocytes, lymphocytes, microglia, oligodendrocytes, and monocytes. FACSAria IIU (BD Biosciences) was used for cell sorting.
# Analysis of T cells. For T-cell flow cytometry analysis, CNS single-cell suspensions or splenocytes were stimulated with 50 ng/mL phorbol 12-myristate 13-acetate (PMA, #P1585, Sigma-Aldrich), 1 μM ionomycin (#I9657, Sigma-Aldrich), GolgiSTOP and (#554724, BD Biosciences, 1:1500) GolgiPLUG (#555029, BD Biosciences, 1:1500) in RPMI 1640 medium (#11875119, Life Technologies) containing 10% FBS (#10438026, GIBCO), penicillin/streptomycin (#15140122, GIBCO, 1:100) for 4 h at 37° C. in a 5% CO2 incubator. Following stimulation, T cells were stained with antibodies against surface markers, and thereafter fixed and stained with antibody against intracellular target protein with an intracellular antibody labeling kit following its instructions (#00-5523, eBioscience).
# RNA-sequencing. Sorted astrocytes or microglia were re-suspended in extraction buffer of Picopure RNA isolation kit (KIT0204, Thermo Fisher) and after 30 min incubation at 42° C. samples were extracted following manufacturer's instructions with on-column DNase I digestion (QIAGEN, #79254). RNA was suspended in 10 μl of nuclease free water and 5 μl were sent for SMARTseq sequencing by the Broad Technology Labs and the Broad Genomics Platform. Processed RNA-Seq data was filtered, removing genes with low read counts. Read counts were normalized using TMM normalization and CPM (counts per million) were calculated to create a matrix of normalized expression values.
# H&E, LFB and silver staining. Transverse sections from lumbar spinal cords of EAE mice at the end of the experiment were fixed in 4% paraformaldehyde, pH 7.4, embedded in paraffin and cut at 10-μm thickness. Sections were stained with Hematoxylin and Eosin, Luxol fast blue, or silver nitrate. Images were acquired by using a Zeiss Axioskop2 plus microscope with AxioCam HRC and AxioVision software and analyzed by using ImageJ software. […]
# [5] = 20 mg/kg from the peak of the disease
# [6] = daily intraperitoneal injections
structure (smiles),measurement,setting,value
O=C(Nc1ccccc1Cl)c1cnc2ccc(C3CCNCC3)cn12 [A38],solubility,[1],> 10000 µg/mL
same,NOD EAE clinical scores,[2]; administration during the progressive phase,"ameliorated NOD EAE, as indicated by the reduced clinical scores"
same,astrocyte and microglial expression of transcriptional modules associated with CNS inflammation and neurodegeneration,[2]; progressive phase of NOD EAE,suppressed
same,peripheral T-cell response,[2]; progressive phase of NOD EAE,no changes in the peripheral T-cell response were detected
same,recruitment of pro-inflammatory monocytes to the CNS,[2]; progressive phase of NOD EAE,decreased recruitment
same,ACM neurotoxic activity,[3],decrease in neurotoxicity; also recorded: reduced ACM neurotoxic
same,T-cell response,[4]; [5],did not affect T-cell response
same,astrocyte and microglial expression of transcriptional modules associated with CNS inflammation and neurodegeneration (RNA-seq),[4]; [5],decreased
same,axonal loss (histopathology),[4]; [5],"reduced demyelination, and axonal loss"
same,demyelination (histopathology),[4]; [5],reduced demyelination
same,recruitment of Ly6C^Hi pro-inflammatory monocytes to the CNS,[4]; [5],reduced the recruitment
same,EAE clinical scores,[4]; 20 mg/kg i.p. twice a day from the peak of the disease,"ameliorated EAE, as indicated by the reduction in clinical scores"
same,expression of genes related to ROS metabolic processes in astrocytes isolated from treated EAE mice,[4]; FIG. 5D,a decrease in the expression
same,therapeutic effects of A38 concomitant with EphB3 knockdown in astrocytes,[4]; compared with either intervention alone,did not further increase the therapeutic effects
same,T cell counts in the spleen,[4]; [6],unchanged
same,pro-inflammatory monocytes in the CNS,[4]; [6],decrease
same,"course of EAE, preventive treatment",[4]; daily intraperitoneal injections from day 3 (priming phase),did not alter the course of EAE
same,"clinical course of EAE, treatment during the chronic phase",[4]; daily intraperitoneal injections from day 21,ameliorated the clinical course significantly
same,IFN-γ and IL-17 producing T cells in the CNS,"[4]; daily intraperitoneal injections, chronic phase",significant decrease
